pIC50: −log10 of the molar value.
Target: Proto-oncogene tyrosine-protein kinase Src (Homo sapiens, UniProt P12931)
Test: Inhibition of His-tagged human src kinase expressed in Sf9 cells by DELFIA assay

Proto-oncogene tyrosine-protein kinase Src, sequence (P12931 2-536 limits assumed): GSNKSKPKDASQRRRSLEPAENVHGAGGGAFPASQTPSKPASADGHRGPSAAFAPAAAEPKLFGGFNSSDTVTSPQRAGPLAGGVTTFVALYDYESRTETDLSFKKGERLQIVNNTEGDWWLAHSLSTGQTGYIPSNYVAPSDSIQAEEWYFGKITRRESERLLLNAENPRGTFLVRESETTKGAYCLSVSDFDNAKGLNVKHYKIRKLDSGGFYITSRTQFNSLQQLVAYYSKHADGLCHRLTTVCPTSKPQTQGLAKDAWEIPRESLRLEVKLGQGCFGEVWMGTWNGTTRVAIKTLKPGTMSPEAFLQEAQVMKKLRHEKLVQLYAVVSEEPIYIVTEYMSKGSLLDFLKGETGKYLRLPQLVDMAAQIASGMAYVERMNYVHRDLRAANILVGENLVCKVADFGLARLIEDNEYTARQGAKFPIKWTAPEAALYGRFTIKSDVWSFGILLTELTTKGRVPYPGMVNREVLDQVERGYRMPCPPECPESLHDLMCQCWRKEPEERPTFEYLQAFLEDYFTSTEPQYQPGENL

SMILES | pIC50
O=C1C(c2ccccc2)=C(O)C(=O)c2c1oc1cc(O)c(O)cc21 | 4.63
O=C1C(O)=C(c2ccc(O)cc2)C(=O)C(O)=C1c1ccccc1 | 4.43
O=C1C(O)=C(c2ccccc2)C(=O)C(O)=C1c1ccccc1 | < 4.30
O=C1C(O)=C(c2cc(O)c(O)c(O)c2)C(=O)C(O)=C1c1ccccc1 | 5.41
O=C1C(O)=C(c2ccc(O)c(O)c2)C(=O)C(O)=C1c1ccccc1 | 4.84
